The results in this text go back to patent US8658390B2, “Method for detecting muscle degenerative diseases, and method for determining therapeutic efficacy on the diseases” (Osaka Bioscience Institute, priority 2009, dated 2014).

The subject of assay [1] is mdx mice. As to the kind of experiment: Forefoot grip strength of mdx mice (symptom evaluation). Format: in vivo, mouse. Conditions: 4 weeks old, oral, 30 mg/kg for 5 days, solvent group showed no significant change (FIG. 1, right). The method, then: (§1) Muscular dystrophy mouse: mdx (C57Bl/10 ScSn; available from JAX Laboratories)
A solvent (0.5% methylcellulose solution) or test compound 1 was orally administered to mdx mice, 4 weeks old, for 5 days at a dose of 30 mg/kg. Using a metabolism cage for mice, urine was collected over the course of about 12 hours before the administration of test compound 1 and 5 days after the administration. For comparison, urine was also collected from wild-type mice of the same weeks old and the same lineage used as a control. The creatinine concentration in urine was measured using a measurement kit (L-type Wako CRE M, Wako Pure Chemical Industries, Ltd.).
For the symptom evaluation of the mdx mice, the forefoot grip strength was measured using a grip dynamometer for mice (traction meter; BrainSienceldea). Each measurement was made in 2 min, and the mean value of five trials was calculated.

Assay [2] concerns mdx mice. As to the kind of experiment: Urine Tetranor-PGDM concentration in mdx mice (HPLC-MS/MS). It counts as in vivo, mouse. To be noted: oral, 30 mg/kg for 5 days (FIG. 1, left). The method, then: as §1
A solvent (0.5% methylcellulose solution) or test compound 1 was orally administered to mdx mice, 4 weeks old, for 5 days at a dose of 30 mg/kg. Using a metabolism cage for mice, urine was collected over the course of about 12 hours before the administration of test compound 1 and 5 days after the administration. For comparison, urine was also collected from wild-type mice of the same weeks old and the same lineage used as a control. The creatinine concentration in urine was measured using a measurement kit (L-type Wako CRE M, Wako Pure Chemical Industries, Ltd.). […]
The pretreated urine sample was used for the measurement of Tetranor-PGDM levels. […] MRM (Multiple Reaction Monitoring) was used for quantification. In this technique, only the true parent ions are specifically selected from the mass of the parent ions (precursor ion) and of the fragment ions resulting from CID (collision-induced dissociation), and the parent ions are accurately quantified from the area of the selected ions. […] The fragment ions are then isolated in a second mass analyzer (Q3), and detected at the detector provided downstream. […] Area calculations were performed for the peaks originating from the Tetranor-PGDM in the resulting mass chromatogram, and each peak was quantified from the standard curve created from the standard sample. […]

Assay [3] has as its system CXMDJ. Nature of the assay: Urine Tetranor-PGDM concentration in muscular dystrophy dog CXMDJ (HPLC-MS/MS). It counts as in vivo. The text has this:
Muscular dystrophy dog: CXMDJ (CXMDJ; available from National Center of Neurology and Psychiatry)
CXMDJ was orally administered with a solvent (0.5% methylcellulose solution) or test compound 2 for about 1 year, followed by the administration of test compound 2 for the solvent-administrated dog, and the solvent for the test compound 2-administered dog. Urine was collected before switching from the solvent to test compound 2, and from test compound 2 to the solvent. Urine was collected over time after the administered solution was switched. For comparison, urine was also collected from normal beagles used as a control.
The urine (200 μL) collected from the mice or dogs was mixed with 5 ng of deuterium-labeled Tetranor-PGDM-d6 (Cayman Chemical) used as internal standard. The volume was adjusted to 2 mL with purified water, and pH was adjusted to 3. The urine was then injected to a Sep-Pak Vac C18 cartridge (Waters) equilibrated with acetonitrile (5 mL) and purified water (5 mL). The sample was washed with a 10% acetonitrile solution (5 mL) prepared using purified water, and with hexane (10 mL), and eluted with ethyl acetate (5 mL) before being dried under a stream of nitrogen. The residue was dissolved in a 10% acetonitrile solution (100 μL) prepared using purified water, and used as a measurement sample.
The pretreated urine sample was used for the measurement of Tetranor-PGDM levels. […] MRM (Multiple Reaction Monitoring) was used for quantification. In this technique, only the true parent ions are specifically selected from the mass of the parent ions (precursor ion) and of the fragment ions resulting from CID (collision-induced dissociation), and the parent ions are accurately quantified from the area of the selected ions. […] The fragment ions are then isolated in a second mass analyzer (Q3), and detected at the detector provided downstream. Tetranor-PGDM (mass number 328) was detected by using any of the ions with a m/z (mass number charge) of 155, 143, and 109 produced by further decomposing the product ions with a m/z of 327 by CID (collision-induced dissociation). The internal standard Tetranor-PGDM-d6 (mass number 334) was detected by using any of the product ions with a m/z (mass number÷charge) of 161, 149, and 109 produced by further decomposing the product ions with a m/z of 333 by CID (collision-induced dissociation). […] Area calculations were performed for the peaks originating from the Tetranor-PGDM in the resulting mass chromatogram, and each peak was quantified from the standard curve created from the standard sample. In the quantification, correction was made by using the area value of the peak originating from the Tetranor-PGDM-d6 introduced as the internal standard for the correction of the extraction efficiency and ionization efficiency in each analysis.

For assay [4], the system named is CXMDJ. As to the kind of experiment: Symptom scores of muscular dystrophy dog CXMDJ. Format: in vivo.
[5] abbreviates: CXMDJ switched to solvent after about 1 year of oral test compound 2 (FIG. 2, left).
[6] abbreviates: CXMDJ switched to the inhibitor after about 1 year of oral solvent (FIG. 2, right).

For `c1ccc(C(OC2CCN(CCCc3nnn[nH]3)CC2)c2ccccc2)cc1` [Test compound 1, 4-benzhydryloxy-1-{3-(1H-tetrazol-5-yl)-propyl}piperidine], in the assay on mdx mice [1], the forefoot grip strength result is listed as “significantly increased”. Moreover, the “Tetranor-PGDM concentration in urine” value in the assay with mdx mice [2] is “significantly lower”.
With `CON(C)C(=O)c1[nH]c(C)c(-c2nc3ccc(C(=O)c4ccccc4)cc3[nH]2)c1C` [Test compound 2], the “Tetranor-PGDM concentration in urine” value in the assay with CXMDJ [3] (CXMDJ dog orally administered with test compound 2, compared with CXMDJ dog (Table 1)) is listed as “decreased”. For the same compound, the “urine Tetranor-PGDM concentration” value is listed as “increased” in the assay with CXMDJ [3] (setting [5]) and “decreased” with CXMDJ [3] (setting [6]). For the same compound, in the assay on CXMDJ [3] (urine of HPGDS inhibitor-administered CXMDJ dog (CXMDJ dog without inhibitor 27.8)), the Tetranor-PGDM concentration worked out at 17.9 ng/mL. Further, the symptom scores entry is “worsened” in the assay with CXMDJ [4] (setting [5]) and “improved” in the assay on CXMDJ [4] (setting [6]).
